Results taken from US20160068843A1 (priority 2012, published 2016).
Where two headings read alike, the source gives them in different places.

Test system: H5N1 virus (strain A/Vietnam/1194/04)
Assay type: in vivo, Balb/c mice

| SMILES | survival rate (mouse, in vivo) [%] | survival rate (comparison with existing flu therapeutics, started 24 hours post challenge, siRNA intranasal 100 ug per dose twice a day for two days) [%] |
| --- | --- | --- |
| NC(=O)c1ncn([C@@H]2O[C@H](CO)[C@@H](O)[C@H]2O)n1 [Ribavirin] | 0 |  |
| CC(=O)N[C@H]1[C@H]([C@H](O)[C@H](O)CO)OC(C(=O)O)=C[C@@H]1N=C(N)N [Zanamivir] |  | 40 |
